Like-named read-outs stand apart in the source and are kept apart here.
Columns and labels:
[1] = tested on: PHA-stimulated splenocytes; assay: Proliferative response of PHA-stimulated splenocytes (MTT assay); type: cell-based; conditions: PHA 5 μg/ml, 72 hr; compounds at 5 μM (method says 10 μM); ratio of O.D. versus vehicle control
Method in brief: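 Freshly prepared splenocytes (1×10^6 cells/well) were cultured for 72 h at 37° C with compound at 10 μM final, with or without PHA (5 μg/ml). Viability was read by MTT (4 h), with absorbance at 570 nm against 690 nm reference. Stimulation index is the OD ratio of treated versus vehicle cultures.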

[2] = tested on: lipopolysaccharide-stimulated peritoneal macrophages; assay: Production of nitric oxide by lipopolysaccharide-stimulated peritoneal macrophages (Greiss reagent); type: cell-based; set-up: Potency (%): % inhibition of nitric oxide production relative to lipopolysaccharide-stimulated macrophages: concentration or dose not given beside the values; conditions: LPS-stimulated peritoneal macrophages; for Nitric oxide (nitrite) concentration, μM (average ± SD): 24 h, nitrite by Greiss reagent
Method in brief: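 Macrophages in nitrite-free medium with 0.1% BSA were stimulated with LPS at 0.5–10 ng/ml, some wells also receiving epinephrine, norepinephrine or dopamine at […], for 24 h at 37° C. Nitrite in supernatants was measured with Greiss reagent, 15 min at room temperature, absorbance 532 nm.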

[3] = tested on: Salmonella typhi ATCC19430; assay: Antimicrobial MIC, agar dilution; type: cell-based; conditions: Salmonella enterica, read-out: Minimum inhibitory concentration (MIC)
[4] = tested on: HCT116 (colon) carcinoma cell line; assay: Anti-tumor properties, MTT; type: cell-based; conditions: Homo sapiens, HCT-116; read-out: IC50 (μM) HCT116 (colon)
Method in brief: (§1)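 Cells seeded at 10×10^3 per well for 24 h, then exposed to compound in serum-free medium (final up to 100 μM, 0.5% DMSO vehicle) for 72 h in triplicate. Viability by MTT reduction (4 h, SDS solubilised), absorbance 595 nm/ref 620 nm; IC50 from survival curves.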

[5] = tested on: HepG2 (hepatocellular) carcinoma cell line; assay: Anti-tumor properties, MTT; type: cell-based; conditions: Homo sapiens, HepG2; read-out: IC50 (μM) HepG2 (liver)
Method in brief: as §1

[6] = tested on: MCF7 (breast) carcinoma cell line; assay: Anti-tumor properties, MTT; type: cell-based; conditions: Homo sapiens, MCF7; read-out: IC50 (μM) MCF7 (breast)
Method in brief: as §1

[7] = tested on: A-549 (lung) carcinoma cell line; assay: Anti-tumor properties, MTT; type: cell-based; conditions: Homo sapiens, A549
[8] = tested on: PC3 (prostate) carcinoma cell line; assay: Anti-tumor properties, MTT; type: cell-based; conditions: Homo sapiens
[9] = tested on: Staphylococcus aureus ATCC25923; assay: Antimicrobial MIC, agar dilution
[10] = tested on: Streptococcus pyogenes ATCC19615; assay: Antimicrobial MIC, agar dilution
[11] = tested on: Pseudomonas aeruginosa ATCC27853; assay: Antimicrobial MIC, agar dilution
[12] = tested on: Candida albicans (local isolate); assay: Antimicrobial MIC, agar dilution; conditions: Candida albicans, read-out: Minimum inhibitory concentration (MIC)
gastric mucosa = assay: Ulcerogenic liability (ulcer index); type: in vivo, albino mice; conditions: orally, three successive days, 10 mg/kg indomethacin mol equivalent
Procedure: The ulcerogenic liability was investigated in albino mice using the standard method. […] The animals were fasted 18 h before drug administration. […] The control group animals were given saline solution only with few drops of Tween 80. […] The gastric mucosa was examined with a magnifying lens (10×) for the presence of lesions and erosions.
1. percentage incidence of ulcer divided by 10;
2. average number of ulcers per stomach; and
3. average severity of ulcers;

[13] = ATCC25923, 18 h, read-out: Minimum inhibitory concentration (MIC)
[14] = ATCC25923, read-out: Minimum inhibitory concentration (MIC)
[15] = ATCC19615, 18 h, read-out: Minimum inhibitory concentration (MIC)
[16] = ATCC19615, read-out: Minimum inhibitory concentration (MIC)
[17] = ATCC27853, 18 h, read-out: Minimum inhibitory concentration (MIC)
[18] = ATCC27853, read-out: Minimum inhibitory concentration (MIC)

SMILES | Stimulation Index (average ± SD) [1] | Potency (%): % inhibition of nitric oxide production relative to lipopolysaccharide-stimulated macrophages [2] | Nitric oxide (nitrite) concentration, μM (average ± SD) [2] | MIC ([3]; 18 h) | MIC [3] | IC50 [4] | IC50 [5] | IC50 [6] | IC50 [7] | IC50 [8] | MIC [9, 13] | MIC [9, 14] | MIC [10, 15] | MIC [10, 16] | MIC [11, 17] | MIC [11, 18] | MIC ([12]; 18 h) | MIC [12] | further results
COc1cc(/C=C/C(=O)CC(=O)/C=C/c2ccc(OC(=O)C(C)NC(=O)OC(C)(C)C)c(OC)c2)ccc1OC(=O)C(C)NC(=O)OC(C)(C)C (racemic) [Boc-DL-Ala-Cur, ((1E,6E)-3,5-dioxohepta-1,6-diene-1,7-diyl)bis(2-methoxy-4,1-phenylene) bis(2-((tert-butoxycarbonyl)amino)propanoate)] | 1.78 ± 0.07 | 30.88% | 18.88 ± 0.46 µM | 0.25 µg/mL | 0.352 µM | > 100 µM | > 100 µM | 34.8 µM | 73.9 µM | > 100 µM | 0.25 µg/mL | 0.352 µM | 0.125 µg/mL | 0.176 µM | 0.25 µg/mL | 0.352 µM | 0.5 µg/mL | 0.703 µM | 
COc1cc(/C=C/C(=O)CC(=O)/C=C/c2ccc(OC(=O)C(C)N)c(OC)c2)ccc1OC(=O)C(C)N.Cl.Cl (racemic) [HCl-DL-Ala-Cur, 1,1′-((((1E,6E)-3,5-dioxohepta-1,6-diene-1,7-diyl)bis(2-methoxy-4,1-phenylene))bis(oxy))bis(1-oxopropan-2-aminium) chloride] | 1.91 ± 0.15 | 27.69% | 19.75 ± 0.97 µM | 0.25 µg/mL | 0.428 µM | 66.9 µM | 36.8 µM | 9.79 µM | 22.2 µM | 21.7 µM | 0.125 µg/mL | 0.214 µM | 0.25 µg/mL | 0.428 µM | 0.5 µg/mL | 0.857 µM | 1 µg/mL | 1.71 µM | 
COc1cc(/C=C/C(=O)CC(=O)/C=C/c2ccc(OC(=O)[C@@H](C)NC(=O)OC(C)(C)C)c(OC)c2)ccc1OC(=O)[C@@H](C)NC(=O)OC(C)(C)C [Boc-D-Ala-Cur, ((1E,6E)-3,5-dioxohepta-1,6-diene-1,7-diyl)bis(2-methoxy-4,1-phenylene) (2R,2′R)-bis(2-((tert-butoxycarbonyl)amino)propanoate)] | 2.07 ± 0.12 | 23.82% | 20.81 ± 0.82 µM | 0.25 µg/mL | 0.352 µM | > 100 µM | > 100 µM | 29.2 µM | 85.4 µM | > 100 µM | 0.125 µg/mL | 0.176 µM | 1 µg/mL | 1.41 µM | 0.25 µg/mL | 0.352 µM | 0.5 µg/mL | 0.703 µM | 
COc1cc(/C=C/C(=O)CC(=O)/C=C/c2ccc(OC(=O)[C@@H](CCSC)NC(=O)OC(C)(C)C)c(OC)c2)ccc1OC(=O)[C@@H](CCSC)NC(=O)OC(C)(C)C [Boc-D-Met-Cur, ((1E,6E)-3,5-dioxohepta-1,6-diene-1,7-diyl)bis(2-methoxy-4,1-phenylene) (2R,2′R)-bis(2-((tert-butoxycarbonyl)amino)-4-(methylthio)butanoate)] | 2.53 ± 0.08 |  |  | 1 µg/mL | 1.2 µM | > 100 µM | > 100 µM | 22.3 µM | > 100 µM | > 100 µM | 0.25 µg/mL | 0.301 µM | 0.125 µg/mL | 0.15 µM | 0.25 µg/mL | 0.301 µM | 0.5 µg/mL | 0.602 µM | % Incidence of ulcer divided by 10 (gastric mucosa): 0; Average of ulcer number (gastric mucosa): 0; Average severity of ulcer (gastric mucosa): 0; Number of animals with ulcer (gastric mucosa; 6 animals per group): 0/6; Ulcer index (gastric mucosa; sum of the three values): 0
COc1cc(/C=C/C(=O)CC(=O)/C=C/c2ccc(OC(=O)CNC(=O)OC(C)(C)C)c(OC)c2)ccc1OC(=O)CNC(=O)OC(C)(C)C [Boc-Gly-Cur, ((1E,6E)-3,5-dioxohepta-1,6-diene-1,7-diyl)bis(2-methoxy-4,1-phenylene) bis(2-((tert-butoxycarbonyl)amino)acetate)] | 2.11 ± 0.16 | 33.65% | 18.12 ± 1.41 µM | 0.125 µg/mL | 0.183 µM | > 100 µM | > 100 µM | 17.2 µM | 80.9 µM | > 100 µM | 0.25 µg/mL | 0.366 µM | 1 µg/mL | 1.47 µM | 0.25 µg/mL | 0.366 µM | 0.5 µg/mL | 0.732 µM | 
COc1cc(/C=C/C(=O)CC(=O)/C=C/c2ccc(OC(=O)[C@H](C)NC(=O)OC(C)(C)C)c(OC)c2)ccc1OC(=O)[C@H](C)NC(=O)OC(C)(C)C [Boc-L-Ala-Cur, ((1E,6E)-3,5-dioxohepta-1,6-diene-1,7-diyl)bis(2-methoxy-4,1-phenylene) (2S,2′S)-bis(2-((tert-butoxycarbonyl)amino)propanoate)] | 2.71 ± 0.28 | 22.02% | 21.30 ± 1.72 µM | 0.125 µg/mL | 0.176 µM | > 100 µM | > 100 µM | 25.1 µM | > 100 µM | > 100 µM | 0.125 µg/mL | 0.176 µM | 0.25 µg/mL | 0.352 µM | 1 µg/mL | 1.41 µM | 1 µg/mL | 1.41 µM | 
COc1cc(/C=C/C(=O)CC(=O)/C=C/c2ccc(OC(=O)[C@H](CCC(N)=O)NC(=O)OC(C)(C)C)c(OC)c2)ccc1OC(=O)[C@H](CCC(N)=O)NC(=O)OC(C)(C)C [Boc-L-Gln-Cur, ((1E,6E)-3,5-dioxohepta-1,6-diene-1,7-diyl)bis(2-methoxy-4,1-phenylene) (2S,2′S)-bis(5-amino-2-((tert-butoxycarbonyl)amino)-5-oxopentanoate)] | 2.14 ± 0.23 | 22.29% | 21.22 ± 1.50 µM | 0.125 µg/mL | 0.152 µM | > 100 µM | 70.6 µM | 8.48 µM | 30.9 µM | 39.1 µM | 0.125 µg/mL | 0.152 µM | 0.25 µg/mL | 0.303 µM | 1 µg/mL | 1.21 µM | 2 µg/mL | 2.42 µM | 
CC[C@H](C)[C@H](NC(=O)OC(C)(C)C)C(=O)Oc1ccc(/C=C/C(=O)CC(=O)/C=C/c2ccc(OC(=O)[C@@H](NC(=O)OC(C)(C)C)[C@@H](C)CC)c(OC)c2)cc1OC [Boc-L-Ile-Cur, ((1E,6E)-3,5-dioxohepta-1,6-diene-1,7-diyl)bis(2-methoxy-4,1-phenylene) (2S,2′S,3S,3′S)-bis(2-((tert-butoxycarbonyl)amino)-3-methylpentanoate)] | 2.07 ± 0.10 | 23.82% | 20.81 ± 0.68 µM | 0.125 µg/mL | 0.157 µM | > 100 µM | > 100 µM | 49.6 µM | > 100 µM | > 100 µM | 0.125 µg/mL | 0.157 µM | 0.25 µg/mL | 0.314 µM | 1 µg/mL | 1.26 µM | 2 µg/mL | 2.52 µM | 
